Reference: PubChem BioAssay (NCI)
Values joined by “and” are separate entries in the source; they are usually repeats but may differ in a detail not shown here. Identical values can stand only once.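 Grown in 96-well plates, cells were treated for 48 hours with each compound at five concentrations. Insufficient inhibition: endpoint recorded as highest concentration tested. The concentration for 50% growth inhibition is given as GI50. Definition used: TGI = concentration required for complete inhibition of growth.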

Legend:
Test in all cases: NCI-60 cell line screen, 48 h
ACHN renal = test system: ACHN renal
HCT-15 colon = test system: HCT-15 colon
HL-60(TB) leukemia = test system: HL-60(TB) leukemia
NCI-H226 lung = test system: NCI-H226 lung
OVCAR-4 ovarian = test system: OVCAR-4 ovarian
SK-MEL-5 melanoma = test system: SK-MEL-5 melanoma
NCI/ADR-RES ovarian = test system: NCI/ADR-RES ovarian
SNB-19 CNS = test system: SNB-19 CNS
DU-145 prostate = test system: DU-145 prostate
SF-539 CNS = test system: SF-539 CNS

Compound | TGI (ACHN renal) | TGI (HCT-15 colon) [µM] | TGI (HL-60(TB) leukemia) | TGI (NCI-H226 lung) | TGI (OVCAR-4 ovarian) [µM] | TGI (SK-MEL-5 melanoma) | GI50 (NCI-H226 lung) [µM] | GI50 (NCI/ADR-RES ovarian) [µM] | TGI (NCI/ADR-RES ovarian) [µM] | GI50 (SK-MEL-5 melanoma) | GI50 (SNB-19 CNS) [µM] | TGI (SNB-19 CNS) | GI50 (ACHN renal) | GI50 (DU-145 prostate) [µM] | TGI (DU-145 prostate) [µM] | GI50 (HL-60(TB) leukemia) [µM] | GI50 (OVCAR-4 ovarian) | GI50 (SF-539 CNS) [µM] | TGI (SF-539 CNS) | GI50 (HCT-15 colon)
CCOC(=O)CN(Cn1cncn1)Cn1cncn1 | > 100 µM | 47.2 | > 100 µM | 79.2 µM | > 100 | 53.7 µM | – | – | – | – | – | – | – | – | – | – | – | – | – | –
COc1ccc2c(c1OC)-c1c(c3ccc([N+](=O)[O-])cc3c(=O)n1CCCBr)C2=O | – | – | – | 84.3 µM | – | > 100 µM | 26.8 | 26 | 98.9 | 18100 nM | 69.9 | > 100 µM | – | – | – | – | – | – | – | –
CNNC(=N\S(=O)(=O)c1cc(C)c(Cl)cc1SCc1ccccc1)/N=C/c1ccc([N+](=O)[O-])s1 | > 100 µM | > 100 | > 100 µM | – | > 100 | > 37.3 µM | – | > 100 | > 100 | 1480 nM | > 100 | > 100 µM | > 100 µM | > 100 | > 100 | > 100 | > 100 µM | > 100 | > 100 µM | –
[O-]c1ccccc1C=Nc1ccc2c(c1)CCC2.[O-]c1ccccc1C=Nc1ccc2c(c1)CCC2.[O]=[U+2]=[O] | > 100 µM | > 100 | > 100 µM | > 100 µM | > 100 | > 100 µM | > 100 | – | – | 60800 nM | 27.9 | > 100 µM | 70.3 µM | – | – | 9.43 | > 100 µM | 14.2 | > 100 µM | 28.3 µM
COC(=O)C1C(=O)CC2CCCCC21 (stereo not drawn) | > 100 µM | > 100 | > 100 µM | > 100 µM | > 100 | > 100 µM | – | – | – | – | – | > 100 µM | – | – | – | – | – | – | > 100 µM | –
C#CCNC(=S)N/N=C(\C)c1ccccn1 | > 100 µM | > 100 | 0.36 µM | 3.33 µM | 1.35 | 2.7 µM | 0.406 | – | – | 617 nM | 3.43 | > 100 µM | 0.313 µM | 0.404 | > 59.3 | 0.084 | 0.0519 µM | 0.35 | 3.52 µM | 0.36 µM
Cc1ccc(Oc2ccccc2N)cc1 | – | > 100 | 45 µM | – | > 100 | 26.2 µM | – | – | – | – | – | > 100 µM | – | – | – | – | – | – | 40.1 µM | –
Cn1cccc1-c1cc(-c2ccccc2)[nH]c(=O)c1C#N | > 100 µM | > 100 | – | > 100 µM | > 100 | > 100 µM | > 100 | > 100 | > 100 | > 100000 nM | > 100 | > 100 µM | > 100 µM | > 100 | > 100 | – | > 100 µM | > 100 | > 100 µM | > 100 µM
COc1ccc(OC(C(=O)O)C(C)C)c2c1CCCC2=O (stereo not drawn) | > 100 µM | > 100 | > 100 µM | – | > 100 | > 100 µM | – | – | – | – | – | > 100 µM | – | – | – | – | – | – | > 100 µM | –
N#C/C(=C\c1cccc(O)c1O)C(N)=O | > 100 µM | > 100 | 31.1 µM | 88 µM | > 100 | – | – | – | – | – | – | > 100 µM | – | – | – | – | – | – | > 100 µM | –
CCOC(=O)c1c(C)n(Cc2ccc(Cl)cc2Cl)c2c1cc1oc(=O)c(=O)n3cnc2c13 | 27.5 µM | 27.3 | 28.2 µM | 39.5 µM | 27.6 | 34.3 µM | 19.7 | – | – | 18000 nM | 17.4 | 32.1 µM | 14.4 µM | 17.3 | 32.9 | 5.43 | 11.9 µM | 20.6 | 38.3 µM | 13.7 µM
CNc1ccc2ncccc2c1[N+](=O)[O-] | > 100 µM | > 100 | > 100 µM | > 100 µM | > 100 | > 100 µM | – | – | – | – | – | > 100 µM | – | – | – | – | – | – | > 100 µM | –
COc1ccc(-c2cc(C(=O)Nc3cc(C(F)(F)F)cc(C(F)(F)F)c3)c3ccccc3n2)cc1 | 76.2 µM | 28.7 | > 100 µM | 46.9 µM | > 100 | 34.6 µM | – | – | – | – | – | – | – | – | – | – | – | – | 28.4 µM | –
CCc1cccc(C)c1N1C(=O)C(=O)C(c2nc3ccccc3o2)C(=O)C1=O | > 100 µM | > 100 | > 100 µM | > 100 µM | > 100 | > 100 µM | – | – | – | – | – | > 100 µM | – | – | – | – | – | – | > 100 µM | –
CC(C)(O)/C=C/C(=O)[C@](C)(O)[C@H]1[C@H](O)C[C@@]2(C)[C@@H]3CC=C4[C@@H](C[C@H](O)C(=O)C4(C)C)[C@]3(C)C(=O)C[C@]12C | 0.931 µM and 8.45 µM | – | 0.687 µM and 1.68 µM | 0.642 µM and 0.913 µM | – | 0.682 µM and 2.44 µM | 0.174 | – | – | 56.5 nM and 110 nM | 0.0476 | 0.349 µM and 0.951 µM | 0.197 µM and 1.28 µM | – | – | – | 0.161 µM and 0.891 µM | 0.217 | 0.614 µM and 0.264 µM | 0.0862 µM and 0.159 µM
CCCn1cnc2c(SCC(=O)O)nc(N)nc21 | > 100 µM | > 100 | > 100 µM | > 100 µM | > 100 | > 100 µM | – | – | > 100 | – | – | > 100 µM | – | – | > 100 | – | – | – | – | –
C#CCNC(=O)NCCCCC(NC(=O)OCc1ccccc1)C(=O)OCc1ccccc1 (stereo not drawn) | > 31.6 µM | > 100 | 35.4 µM | > 100 µM | > 100 | > 100 µM | – | – | – | – | – | > 100 µM | – | – | – | – | – | – | > 100 µM | –
CCn1c(-c2cc3c([nH]c4ccccc43)c(-c3cccc(O)c3)n2)n[nH]c1=S | 10.1 µM | 16.1 | – | 55.8 µM | 13.1 | 3.06 µM | 6.45 | 3.15 | 42 | 1450 nM | 4.28 | 16.6 µM | 3.02 µM | 4.87 | 16.7 | – | 3.12 µM | 2.42 | 9.27 µM | 3.37 µM
COC(=O)C1=C(CS(=O)c2ccc([N+](=O)[O-])cc2[N+](=O)[O-])C2C=CC1C2 (stereo not drawn) | 39.5 µM | 29.1 | 37.2 µM | 98.4 µM | 67.1 | > 100 µM | – | – | – | – | – | > 100 µM | – | – | – | – | – | – | 51.2 µM | –
